Results as given in patent publication US8703975B2, “Aryl (ethanoic) propanoic acid ascorbyl ester, preparation method thereof and medicament containing the same” (Wuxi Hongrui Bio-Pharma-Tech Co., Ltd., priority 2009, dated 2014).

Key:
[1] = Solubility in solvents and water; format: physicochemical
[2] = tested on: Arteriovenous Loop Thrombus; assay: Arteriovenous loop thrombus in rats, thrombus wet weight and inhibition rate; format: in vivo; conditions: 5.4 mg·kg^−1 by gavage for 3 days
Method: Normal rats, half male and half female, were randomly grouped according to table 1. The administration group was given water solution of Sodium Salt L-ascorbic acid-6-O—(S)-ibuprofen ester (pH 7.4) by gavage and the control group was given equivalent pH normal saline for continuous 3 days. The rat was intraperitoneally injected with 350 mg of 8% chloral hydrate per kg for anesthesia 1 h after the last administration, and then fixed in the supine position to separate the right common carotid artery and the left external jugular vein. An early weighed No. 7 operation line (about 8 cm long) was placed in the middle of a 10 cm long polyethylene tube, and then the tube was filled with normal saline and both ends of the tube were connected with an intubation filled with heparin (about 3 cm long), in which one end was inserted into the jugular vein, and the other end was inserted into the common carotid artery. After opening the artery clip, the in vitro loop flow was formed. The blood flow was interrupted after 15 min followed by quickly taking the thrombus and weighing. […]
Statistical analysis: the experimental data was represented as x±s, and the significance of the differences was determined with one-factor analysis of variance. t represented t-test results between the control group and the Sodium Salt L-ascorbic acid-6-O—(S)-ibuprofen ester.

Structure (SMILES)	Solubility ([1]; in chloroform)	Solubility ([1]; in cyclohexane)	Solubility ([1]; in ethanol)	Solubility ([1]; in methanol)	Solubility ([1]; in propylene glycol)	Solubility ([1]; in water)	solubility in water ([1]; water) [g]	thrombus wet weight/body weight × 100 ([2]; 1 h after last administration, 15 min loop flow, x±s)	Thrombus inhibition rate ([2]; versus control group) [%]
CC(C)Cc1ccc([C@H](C)C(=O)OC[C@H](O)[C@H]2OC(=O)C(O)=C2O)cc1 [Embodiment 1, L-Ascorbic Acid-6-O—(S)-Ibuprofen Ester]	insoluble	insoluble	soluble	soluble	soluble	insoluble	–	–	–
CC(C)Cc1ccc([C@H](C)C(=O)OC[C@H](O)[C@H]2OC(=O)C(O)=C2[O-])cc1.[Na+] [Sodium Salt L-Ascorbic Acid-6-O—(S)-Ibuprofen Ester]	–	–	–	–	–	–	12.8	10.372 ± 0.801	12.9
